According to ChEMBL document CHEMBL4602617, “Discovery and optimization of heteroaryl piperazines as potent and selective PI3Kδ inhibitors” (Bioorg Med Chem Lett, 2020):

How the values were obtained:
[1] = target: Serine/threonine-protein kinase DCLK2 (Homo sapiens, UniProt Q8N568); assay: Inhibition of recombinant full length human GST-tagged DCAMKL2 expressed in baculovirus expression system using serine/threonine-17 peptide as substrate incubated for 60 mins in presence of ATP by Z'-LYTE assay
SRSF protein kinase 1 = SRSF protein kinase 1 (Homo sapiens, UniProt Q96SB4); assay: Inhibition of recombinant full length human His-tagged SRPK1 expressed in baculovirus expression system using serine/threonine-18 peptide as substrate incubated for 60 mins in presence of ATP by Z'-LYTE assay
SRSF protein kinase 1, sequence (Q96SB4 whole entry): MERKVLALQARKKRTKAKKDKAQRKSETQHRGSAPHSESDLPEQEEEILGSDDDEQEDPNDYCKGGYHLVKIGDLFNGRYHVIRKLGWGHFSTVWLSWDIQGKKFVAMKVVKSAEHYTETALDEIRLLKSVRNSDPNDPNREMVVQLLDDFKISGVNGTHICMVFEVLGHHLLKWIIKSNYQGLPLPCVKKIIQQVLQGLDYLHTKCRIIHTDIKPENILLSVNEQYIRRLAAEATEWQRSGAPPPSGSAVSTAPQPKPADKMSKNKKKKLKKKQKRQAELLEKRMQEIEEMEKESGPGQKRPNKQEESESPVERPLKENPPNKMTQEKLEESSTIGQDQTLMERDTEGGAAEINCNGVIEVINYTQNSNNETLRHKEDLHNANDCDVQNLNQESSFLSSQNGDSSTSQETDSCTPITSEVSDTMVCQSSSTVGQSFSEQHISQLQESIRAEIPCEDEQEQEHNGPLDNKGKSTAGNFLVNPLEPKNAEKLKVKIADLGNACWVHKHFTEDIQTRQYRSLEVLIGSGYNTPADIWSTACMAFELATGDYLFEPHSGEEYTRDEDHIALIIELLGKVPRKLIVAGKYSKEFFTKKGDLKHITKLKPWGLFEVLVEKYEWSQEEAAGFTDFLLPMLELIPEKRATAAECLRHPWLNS

[2] = target: Glycogen synthase kinase-3 alpha (Homo sapiens, UniProt P49840); assay: Inhibition of recombinant full length GST-tagged human GSK3alpha expressed in baculovirus expression system using Ser/Thr 09 peptide as substrate after 1 hr in presence of ATP by Z'LYTE assay
[3] = target: Protein-tyrosine kinase 2-beta (Homo sapiens, UniProt Q14289); assay: Inhibition of recombinant full length human N-terminal GST-tagged PTK2B cytoplasmic domain expressed in baculovirus expression system using tyr01 peptide as substrate incubated for 60 mins in presence of ATP by Z'-LYTE assay
Protein-tyrosine kinase 2-beta, sequence (Q14289 whole entry, the tested form may be a part): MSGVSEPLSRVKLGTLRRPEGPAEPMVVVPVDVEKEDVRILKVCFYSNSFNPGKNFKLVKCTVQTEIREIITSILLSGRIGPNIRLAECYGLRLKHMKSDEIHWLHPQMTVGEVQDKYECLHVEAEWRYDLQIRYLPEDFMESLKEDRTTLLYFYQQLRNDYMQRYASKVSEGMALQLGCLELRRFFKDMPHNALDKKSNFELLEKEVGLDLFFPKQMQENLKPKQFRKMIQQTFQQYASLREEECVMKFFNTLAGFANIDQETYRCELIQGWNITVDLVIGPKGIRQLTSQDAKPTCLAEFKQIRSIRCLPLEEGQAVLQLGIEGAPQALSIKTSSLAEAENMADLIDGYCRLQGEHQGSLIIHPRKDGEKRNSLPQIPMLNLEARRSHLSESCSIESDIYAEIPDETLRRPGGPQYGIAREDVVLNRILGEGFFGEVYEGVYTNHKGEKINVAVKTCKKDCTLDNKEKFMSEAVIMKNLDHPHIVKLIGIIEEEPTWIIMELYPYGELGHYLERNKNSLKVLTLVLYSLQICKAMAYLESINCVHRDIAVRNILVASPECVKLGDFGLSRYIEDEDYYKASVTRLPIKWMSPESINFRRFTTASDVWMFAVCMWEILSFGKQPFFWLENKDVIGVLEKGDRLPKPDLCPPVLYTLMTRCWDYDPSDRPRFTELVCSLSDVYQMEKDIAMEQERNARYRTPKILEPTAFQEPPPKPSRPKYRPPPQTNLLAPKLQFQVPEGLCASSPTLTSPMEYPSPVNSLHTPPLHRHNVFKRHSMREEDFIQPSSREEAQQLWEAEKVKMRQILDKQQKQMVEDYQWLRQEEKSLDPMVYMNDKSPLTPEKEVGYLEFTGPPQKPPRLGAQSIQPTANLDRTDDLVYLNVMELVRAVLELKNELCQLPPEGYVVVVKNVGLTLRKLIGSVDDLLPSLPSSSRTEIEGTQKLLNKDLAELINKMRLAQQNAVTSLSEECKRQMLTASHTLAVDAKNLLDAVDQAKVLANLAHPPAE

Rattus norvegicus = species: Rattus norvegicus; assay: Inhibition of rat kainate receptor at 10 uM relative to control
[4] = target: Nociceptin receptor (Homo sapiens) (UniProt P41146); assay: Displacement of [3H]nociceptin from full length human recombinant ORL1 receptor expressed in HEK293 cells at 10 uM measured after 60 mins by radiometric scintillation analysis relative to control; assay type: cell-based
Nociceptin receptor (Homo sapiens), sequence (P41146 whole entry): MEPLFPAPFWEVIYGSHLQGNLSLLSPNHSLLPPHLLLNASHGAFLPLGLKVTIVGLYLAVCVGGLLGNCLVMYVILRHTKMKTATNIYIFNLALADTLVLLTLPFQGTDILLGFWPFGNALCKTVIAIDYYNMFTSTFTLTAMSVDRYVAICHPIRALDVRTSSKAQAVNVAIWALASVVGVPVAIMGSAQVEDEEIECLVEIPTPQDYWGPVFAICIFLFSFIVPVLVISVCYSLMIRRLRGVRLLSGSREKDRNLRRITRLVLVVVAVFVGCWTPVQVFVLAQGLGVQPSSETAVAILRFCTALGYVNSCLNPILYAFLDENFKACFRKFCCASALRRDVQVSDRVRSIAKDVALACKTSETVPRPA

[5] = target: Gastrin/cholecystokinin type B receptor (Homo sapiens) (UniProt P32239); assay: Displacement of [125I]CCK-8 from recombinant full length human recombinant CCK2 expressed in Chem-1 cells at 10 uM measured after 3 hrs by radiometric scintillation analysis relative to control; assay type: cell-based
Gastrin/cholecystokinin type B receptor (Homo sapiens), sequence (P32239 whole entry): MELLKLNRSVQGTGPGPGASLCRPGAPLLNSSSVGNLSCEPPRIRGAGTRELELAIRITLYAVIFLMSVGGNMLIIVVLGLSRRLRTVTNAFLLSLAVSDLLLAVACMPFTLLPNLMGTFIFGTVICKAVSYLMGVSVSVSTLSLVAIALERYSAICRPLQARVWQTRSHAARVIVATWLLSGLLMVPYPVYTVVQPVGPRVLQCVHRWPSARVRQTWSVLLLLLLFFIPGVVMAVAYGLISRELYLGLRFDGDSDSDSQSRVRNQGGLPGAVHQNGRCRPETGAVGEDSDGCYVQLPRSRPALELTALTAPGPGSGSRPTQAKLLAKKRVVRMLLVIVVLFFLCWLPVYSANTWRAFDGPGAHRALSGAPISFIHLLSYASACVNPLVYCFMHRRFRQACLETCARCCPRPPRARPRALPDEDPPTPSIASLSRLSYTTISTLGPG

[6] = target: Calcium/calmodulin-dependent protein kinase type II subunit beta (Homo sapiens, UniProt Q13554); assay: Inhibition of recombinant full length human His-tagged CAMK2beta expressed in baculovirus expression system using serine/threonine-17 peptide as substrate incubated for 60 mins in presence of ATP by Z'-LYTE assay
[7] = target: C-X-C chemokine receptor type 2 (Homo sapiens) (UniProt P25025); assay: Displacement of [125I]IL-8 from recombinant full length human CXCR2 receptor expressed in CHOK1 cells at 10 uM measured after 60 mins by radiometric scintillation analysis relative to control; assay type: cell-based; details: CHO-K1
C-X-C chemokine receptor type 2 (Homo sapiens), sequence (P25025 whole entry, the tested form may be a part): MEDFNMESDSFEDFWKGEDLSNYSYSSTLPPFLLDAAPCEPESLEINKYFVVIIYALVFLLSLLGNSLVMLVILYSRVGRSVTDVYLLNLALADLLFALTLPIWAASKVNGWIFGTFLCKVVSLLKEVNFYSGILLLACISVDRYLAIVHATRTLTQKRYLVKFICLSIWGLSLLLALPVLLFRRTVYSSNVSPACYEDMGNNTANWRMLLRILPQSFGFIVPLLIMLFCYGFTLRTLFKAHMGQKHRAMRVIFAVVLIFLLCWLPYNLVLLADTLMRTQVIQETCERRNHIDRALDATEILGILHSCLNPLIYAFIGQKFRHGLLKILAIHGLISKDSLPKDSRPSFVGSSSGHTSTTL

[8] = target: Fibroblast growth factor receptor 2 (Homo sapiens, UniProt P21802); assay: Inhibition of recombinant His-tagged human FGFR2 (403 to 822 residues) cytoplasmic domain expressed in baculovirus expression system using Tyr 04 peptide as substrate after 1 hr in presence of ATP by Z'-LYTE assay
[9] = target: Proto-oncogene tyrosine-protein kinase Src (Homo sapiens, UniProt P12931); assay: Inhibition of recombinant full length human His-tagged SRC expressed in baculovirus expression system using tyrosine-2 peptide as substrate incubated for 60 mins in presence of ATP by Z'-LYTE assay
[10] = target: Dual specificity tyrosine-phosphorylation-regulated kinase 3 (Homo sapiens, UniProt O43781); assay: Inhibition of recombinant full length human GST-tagged DYRK3 expressed in baculovirus expression system using serine/threonine-9 peptide as substrate incubated for 60 mins in presence of ATP by Z'-LYTE assay
[11] = target: Phosphatidylinositol 4-kinase beta (Homo sapiens, UniProt Q9UBF8); assay: Inhibition of recombinant full length human GST-tagged PI4KB expressed in baculovirus expression system using PI lipid as substrate incubated for 60 mins in presence of ATP by Adapta assay
Phosphatidylinositol 4-kinase beta, sequence (Q9UBF8 whole entry): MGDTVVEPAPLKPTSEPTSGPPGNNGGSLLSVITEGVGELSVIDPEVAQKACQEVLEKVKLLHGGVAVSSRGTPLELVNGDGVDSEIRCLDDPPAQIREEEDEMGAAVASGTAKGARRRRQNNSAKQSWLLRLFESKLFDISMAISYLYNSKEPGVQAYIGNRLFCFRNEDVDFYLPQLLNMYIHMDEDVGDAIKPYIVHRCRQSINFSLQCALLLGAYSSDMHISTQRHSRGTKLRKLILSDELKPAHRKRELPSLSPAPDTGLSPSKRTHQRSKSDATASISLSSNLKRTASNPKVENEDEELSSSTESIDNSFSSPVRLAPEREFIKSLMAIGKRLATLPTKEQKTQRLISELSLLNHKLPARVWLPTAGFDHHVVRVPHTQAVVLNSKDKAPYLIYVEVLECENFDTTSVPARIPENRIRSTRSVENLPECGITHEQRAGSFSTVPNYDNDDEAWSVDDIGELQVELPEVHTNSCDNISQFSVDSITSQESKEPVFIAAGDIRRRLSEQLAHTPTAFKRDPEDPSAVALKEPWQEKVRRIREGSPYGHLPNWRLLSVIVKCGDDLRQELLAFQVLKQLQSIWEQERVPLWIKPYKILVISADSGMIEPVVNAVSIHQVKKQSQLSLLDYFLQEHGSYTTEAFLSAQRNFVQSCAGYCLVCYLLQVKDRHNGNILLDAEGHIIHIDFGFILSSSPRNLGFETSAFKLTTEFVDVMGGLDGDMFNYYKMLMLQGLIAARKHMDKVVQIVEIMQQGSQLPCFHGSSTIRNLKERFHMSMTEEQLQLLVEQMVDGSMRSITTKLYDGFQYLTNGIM

[12] = target: Vasopressin V1a receptor (Homo sapiens) (UniProt P37288); assay: Displacement of [125I]phenylacetylTyr(Me)PheGlnAsnArgProArgTyr from recombinant full length human V1A receptor expressed in HEK293 cells at 10 uM after 120 mins by radiometric scintillation analysis relative to control; assay type: cell-based
[13] = target: Mitogen-activated protein kinase 3 (Homo sapiens, UniProt P27361); assay: Inhibition of recombinant full-length human ERK1 expressed in Escherichia coli at 10 uM using MBP as substrate after 30 mins by radiometric scintillation analysis relative to control
[14] = target: Ribosomal protein S6 kinase alpha-5 (Homo sapiens, UniProt O75582); assay: Inhibition of recombinant full length human GST-tagged RPS6KA5 expressed in baculovirus expression system using ser/Thr01 peptide as substrate incubated for 60 mins in presence of ATP by Z'-LYTE assay
Ribosomal protein S6 kinase alpha-5, sequence (O75582 whole entry): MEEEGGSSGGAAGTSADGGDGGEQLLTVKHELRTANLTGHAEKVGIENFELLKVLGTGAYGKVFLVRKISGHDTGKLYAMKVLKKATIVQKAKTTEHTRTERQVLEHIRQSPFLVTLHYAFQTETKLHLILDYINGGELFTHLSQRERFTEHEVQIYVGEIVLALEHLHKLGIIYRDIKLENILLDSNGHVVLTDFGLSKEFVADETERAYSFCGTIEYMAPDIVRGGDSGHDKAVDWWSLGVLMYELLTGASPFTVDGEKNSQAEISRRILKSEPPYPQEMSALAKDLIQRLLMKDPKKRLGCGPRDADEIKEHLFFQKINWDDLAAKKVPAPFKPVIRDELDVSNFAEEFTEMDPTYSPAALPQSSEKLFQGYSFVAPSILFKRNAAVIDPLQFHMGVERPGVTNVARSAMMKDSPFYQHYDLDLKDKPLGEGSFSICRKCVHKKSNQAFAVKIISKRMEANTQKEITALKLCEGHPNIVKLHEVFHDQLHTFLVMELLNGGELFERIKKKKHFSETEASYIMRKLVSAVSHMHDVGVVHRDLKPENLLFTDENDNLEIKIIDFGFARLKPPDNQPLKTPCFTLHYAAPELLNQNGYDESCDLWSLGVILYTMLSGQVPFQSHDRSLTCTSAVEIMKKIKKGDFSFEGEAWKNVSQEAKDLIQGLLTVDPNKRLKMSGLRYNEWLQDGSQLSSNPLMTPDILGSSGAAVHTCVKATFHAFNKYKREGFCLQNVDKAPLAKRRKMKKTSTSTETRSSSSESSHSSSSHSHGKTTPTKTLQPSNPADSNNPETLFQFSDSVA

[15] = target: Mitogen-activated protein kinase 8 (Homo sapiens, UniProt P45983); assay: Inhibition of recombinant full length human His-tagged JNK1alpha1 expressed in baculovirus expression system using serine/threonine-4 peptide as substrate incubated for 60 mins in presence of ATP by Z'-LYTE assay
[16] = target: Protein kinase C gamma type (Homo sapiens, UniProt P05129); assay: Inhibition of recombinant full length human GST-tagged PRKCG expressed in insect expression system using serine/threonine-7 peptide as substrate incubated for 60 mins in presence of ATP by Z'-LYTE assay
Homo sapiens = species: Homo sapiens; assay: Selectivity index, ratio IC50 for inhibition of recombinant human full-length N-terminal His6-tagged p110beta/untagged full-length p85alpha expressed in baculovirus infected Sf21 cells to ratio IC50 for inhibition of recombinant human full-length N-terminal GST-tagged p110delta/untagged full-length p85alpha expressed in baculovirus infected Sf21 cells
Ephrin type-B receptor 2 = Ephrin type-B receptor 2 (Homo sapiens, UniProt P29323); assay: Inhibition of recombinant human GST-tagged EPHB2 catalytic domain (616 to 884 residues) expressed in baculovirus expression system using tyrosine-2 peptide as substrate incubated for 60 mins in presence of ATP by Z'-LYTE assay
[17] = target: MAP/microtubule affinity-regulating kinase 4 (Homo sapiens, UniProt Q96L34); assay: Inhibition of recombinant full length human GST-tagged MARK4 expressed in baculovirus expression system using serine/threonine-25 peptide as substrate incubated for 60 mins in presence of ATP by Z'-LYTE assay
[18] = target: Tyrosine-protein kinase Fyn (Homo sapiens, UniProt P06241); assay: Inhibition of recombinant full length C-terminal His-tagged human FYN cytoplasmic domain expressed in baculovirus expression system using fluorophore-labeled tyrosine-2 peptide as substrate after 1 hr in presence of ATP by Z'-Lyte assay
[19] = target: Tyrosine-protein kinase Yes (Homo sapiens, UniProt P07947); assay: Inhibition of full length recombinant GST-tagged human YES1 expressed in baculovirus expression system using tyr 02 peptide as substrate after 1 hr in presence of ATP by Z'-LYTE assay
Tyrosine-protein kinase Yes, sequence (P07947 whole entry): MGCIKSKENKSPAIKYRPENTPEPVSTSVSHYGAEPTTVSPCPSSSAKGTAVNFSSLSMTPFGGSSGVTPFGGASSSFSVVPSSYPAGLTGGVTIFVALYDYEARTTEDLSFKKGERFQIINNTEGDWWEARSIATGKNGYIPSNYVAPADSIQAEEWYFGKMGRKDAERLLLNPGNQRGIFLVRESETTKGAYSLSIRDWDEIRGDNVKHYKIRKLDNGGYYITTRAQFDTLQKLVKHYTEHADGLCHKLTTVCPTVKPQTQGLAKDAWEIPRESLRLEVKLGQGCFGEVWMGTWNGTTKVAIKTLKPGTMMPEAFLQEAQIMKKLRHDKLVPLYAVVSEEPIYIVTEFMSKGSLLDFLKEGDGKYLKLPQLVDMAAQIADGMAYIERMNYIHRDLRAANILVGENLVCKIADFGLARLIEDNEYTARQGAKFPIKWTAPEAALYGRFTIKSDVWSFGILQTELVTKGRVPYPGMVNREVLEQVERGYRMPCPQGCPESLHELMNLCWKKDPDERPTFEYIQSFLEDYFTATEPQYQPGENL

[20] = target: Muscarinic acetylcholine receptor M5 (Homo sapiens) (UniProt P08912); assay: Displacement of [3H]N-Methylscopolamine from full length human recombinant Muscarinic M5 receptor expressed in CHOK1 cells at 10 uM measured after 120 mins by radiometric scintillation analysis relative to control; assay type: cell-based; details: CHO-K1
[21] = target: Mitogen-activated protein kinase kinase kinase 9 (Homo sapiens, UniProt P80192); assay: Inhibition of recombinant human GST-tagged MAP3K9 catalytic domain expressed in baculovirus expression system using serine/threonine-7 peptide as substrate incubated for 60 mins in presence of ATP by Z'-LYTE assay

Structure (SMILES): C[C@@H]1C[C@H]1C(=O)N1CCN(c2cnc(C#N)c(-c3cnn(C)c3)n2)C[C@H]1C
- IC50 [1]: > 100 µM
- IC50 (SRSF protein kinase 1): > 100 µM
- IC50 [2]: 26.1 µM
- IC50 [3]: > 100 µM
- inhibition (Rattus norvegicus): 14%
- inhibition [4]: -1%
- inhibition [5]: -4%
- IC50 [6]: > 100 µM
- inhibition [7]: 5%
- IC50 [8]: > 100 µM
- IC50 [9]: > 100 µM
- IC50 [10]: > 100 µM
- IC50 [11]: > 100 µM
- inhibition [12]: -3%
- inhibition [13]: 18%
- IC50 [14]: > 100 µM
- IC50 [15]: > 100 µM
- IC50 [16]: > 100 µM
- Ratio IC50 (Homo sapiens): 2990
- IC50 (Ephrin type-B receptor 2): > 100 µM
- IC50 [17]: > 100 µM
- IC50 [18]: > 100 µM
- IC50 [19]: 37 µM
- inhibition [20]: 1%
- IC50 [21]: > 100 µM
